Data on 31 compounds can be found in patent US12378224B2 (Dong-A Socio Holdings Co., Ltd., priority 2016, dated 2025).

The assay has as its target human MER (528-end) (Homo sapiens (Human), UniProt Q12866). The assay is described as follows: HTRF Kinase Activity Biochemical Assay (KinEASE-TK). The conditions noted are these: 10 uM ATP. In a few lines: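 Activity read-out is the HTRF ratio (665 nm over 620 nm emission, ×10,000; excitation 340 nm) after 1 h detection with 0.375 nM Eu3+-cryptate anti-TK antibody plus 0.062 uM SA-XL665. Preceding kinase step: human MER (528-end), biotinylated TK substrate, 1 h, room temperature.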
(In general: TR-FRET usually uses a lanthanide donor and a delayed reading to cut background.)

human MER (528-end), sequence (Q12866 528-999 limits assumed): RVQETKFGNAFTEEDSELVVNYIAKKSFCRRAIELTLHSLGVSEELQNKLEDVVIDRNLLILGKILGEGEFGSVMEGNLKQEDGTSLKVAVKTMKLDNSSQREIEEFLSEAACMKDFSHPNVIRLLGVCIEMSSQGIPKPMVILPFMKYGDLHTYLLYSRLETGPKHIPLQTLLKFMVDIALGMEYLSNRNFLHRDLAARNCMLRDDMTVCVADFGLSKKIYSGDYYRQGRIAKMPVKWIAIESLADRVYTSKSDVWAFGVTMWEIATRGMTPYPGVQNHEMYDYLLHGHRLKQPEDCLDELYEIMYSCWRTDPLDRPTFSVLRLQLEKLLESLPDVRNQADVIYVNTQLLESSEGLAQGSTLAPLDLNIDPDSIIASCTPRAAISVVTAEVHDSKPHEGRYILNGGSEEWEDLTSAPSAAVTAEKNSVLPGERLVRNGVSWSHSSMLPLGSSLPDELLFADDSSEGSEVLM

Usually IC50 stands for the concentration at which inhibition is half-maximal. The compound `Cn1cc(-c2cnc(N)c(C(=O)N[C@@H]3CCN(C(=O)Oc4cccc(O)c4)C3)c2)cn1` [Example 101, 3-hydroxyphenyl (R)-3-(2-amino-5-(1-methyl-1H-pyrazol-4-yl)nicotinamido)pyrrolidine-1-carboxylate] yielded a half-maximal inhibitory concentration (IC50) of over 1000 nM. The value for `Cn1cc(-c2cnc(N)c(C(=O)N[C@@H]3CCN(C(=O)Oc4ccc(Oc5ccccc5)cc4)C3)c2)cn1` [Example 102, 4-phenoxyphenyl (R)-3-(2-amino-5-(1-methyl-1H-pyrazol-4-yl)nicotinamido)pyrrolidine-1-carboxylate] was 100 to 1000 nM; that for `Cn1cc(-c2cnc(N)c(C(=O)N[C@@H]3CCN(C(=O)Oc4ccc5ccccc5c4)C3)c2)cn1` [Example 103, naphthalen-2-yl (R)-3-(2-amino-5-(1-methyl-1H-pyrazol-4-yl)nicotinamido)pyrrolidine-1-carboxylate] was 100 to 1000 nM; that for `Cn1cc(-c2cnc(N)c(C(=O)N[C@@H]3CCN(C(=O)Oc4ccc5cc(O)ccc5c4)C3)c2)cn1` [Example 104, 6-hydroxynaphthalen-2-yl (R)-3-(2-amino-5-(1-methyl-1H-pyrazol-4-yl)nicotinamido)pyrrolidine-1-carboxylate] was 100 to 1000 nM. The value for `Cn1cc(-c2cnc(N)c(C(=O)N[C@@H]3CCN(C(=O)O[C@H]4C[C@H]5CC[C@@H]4C5)C3)c2)cn1` [Example 105, (1R,2S,4S)-bicyclo[2.2.1]heptan-2-yl (R)-3-(2-amino-5-(1-methyl-1H-pyrazol-4-yl)nicotinamido)pyrrolidine-1-carboxylate] was over 1000 nM; that for `Cn1cc(-c2cnc(N)c(C(=O)N[C@@H]3CCN(C(=O)OC4CCCC4)C3)c2)cn1` [Example 106, cyclopentyl (R)-3-(2-amino-5-(1-methyl-1H-pyrazol-4-yl)nicotinamido)pyrrolidine-1-carboxylate] was over 1000 nM; that for `Cn1cc(-c2cnc(N)c(C(=O)N[C@@H]3CCN(C(=O)OC4CCCCCC4)C3)c2)cn1` [Example 107, cycloheptyl (R)-3-(2-amino-5-(1-methyl-1H-pyrazol-4-yl)nicotinamido)pyrrolidine-1-carboxylate] was over 1000 nM. The value for `Cn1cc(-c2cnc(N)c(C(=O)N[C@@H]3CCN(C(=O)O[C@H]4C[C@@H]5CC[C@H]4C5)C3)c2)cn1` [Example 109, (1S,2S,4R)-bicyclo[2.2.1]heptan-2-yl (R)-3-(2-amino-5-(1-methyl-1H-pyrazol-4-yl)nicotinamido)pyrrolidine-1-carboxylate] was over 1000 nM; that for `Cn1cc(-c2cnc(N)c(C(=O)N[C@@H]3CCN(C(=O)Oc4cccc(Oc5ccccc5)c4)C3)c2)cn1` [Example 110, 3-phenoxyphenyl (R)-3-(2-amino-5-(1-methyl-1H-pyrazol-4-yl)nicotinamido)pyrrolidine-1-carboxylate] was 100 to 1000 nM; that for `Cn1cc(-c2cnc(N)c(C(=O)N[C@@H]3CCN(C(=O)Oc4ccc(Oc5ccc([N+](=O)[O-])cc5)cc4)C3)c2)cn1` [Example 111, 4-(4-nitrophenoxy)phenyl (R)-3-(2-amino-5-(1-methyl-1H-pyrazol-4-yl)nicotinamido)pyrrolidine-1-carboxylate] was over 1000 nM. `Cn1cc(-c2cnc(N)c(C(=O)N[C@@H]3CCN(C(=O)Oc4ccc(Oc5ccc(N)cc5)cc4)C3)c2)cn1` [Example 112, 4-(4-aminophenoxy)phenyl (R)-3-(2-amino-5-(1-methyl-1H-pyrazol-4-yl)nicotinamido)pyrrolidine-1-carboxylate]: the IC50 lay in the range of 100 to 1000 nM. The value for `Cn1cc(-c2cnc(N)c(C(=O)N[C@@H]3CCN(C(=O)Oc4ccc(Oc5ccc(CO)cc5)cc4)C3)c2)cn1` [Example 114, 4-(4-(hydroxymethyl)phenoxy)phenyl (R)-3-(2-amino-5-(1-methyl-1H-pyrazol-4-yl)nicotinamido)pyrrolidine-1-carboxylate] was 100 to 1000 nM. The result for `CN(C)Cc1ccc(Oc2ccc(OC(=O)N3CC[C@@H](NC(=O)c4cc(-c5cnn(C)c5)cnc4N)C3)cc2)cc1` [Example 115, 4-(4-((dimethylamino)methyl)phenoxy)phenyl (R)-3-(2-amino-5-(1-methyl-1H-pyrazol-4-yl)nicotinamido)pyrrolidine-1-carboxylate] reads 100 to 1000 nM; that for `Cn1cc(-c2cnc(N)c(C(=O)N[C@@H]3CCN(C(=O)Oc4cc(Cl)cc(Cl)c4)C3)c2)cn1` [Example 116, 3,5-dichlorophenyl (R)-3-(2-amino-5-(1-methyl-1H-pyrazol-4-yl)nicotinamido)pyrrolidine-1-carboxylate], 100 to 1000 nM. Take `CN1CCC(n2cc(-c3cnc(N)c(C(=O)N[C@@H]4CCN(C(=O)Oc5ccccc5)C4)c3)cn2)CC1` [Example 119, phenyl (R)-3-(2-amino-5-(1-(1-methylpiperidin-4-yl)-1H-pyrazol-4-yl)nicotinamido)pyrrolidine-1-carboxylate]: the IC50 was over 1000 nM. Consider `Cn1cc(-c2cnc(N)c(C(=O)N[C@@H]3CCN(C(=O)OC4CCC(c5ccccc5)CC4)C3)c2)cn1` (stereo partly drawn) [Example 125, 4-phenylcyclohexyl (R)-3-(2-amino-5-(1-methyl-1H-pyrazol-4-yl)nicotinamido)pyrrolidine-1-carboxylate], for which the 50% inhibitory concentration (IC50) was over 1000 nM. The result for `CN(C(=O)c1cc(-c2cnn(C)c2)cnc1N)[C@@H]1CCN(C(=O)Oc2cccc(-c3ccccc3)c2)C1` [Example 130, [1,1′-biphenyl]-3-yl (R)-3-(2-amino-N-methyl-5-(1-methyl-1H-pyrazol-4-yl)nicotinamido)pyrrolidine-1-carboxylate] reads over 1000 nM. Compound `Cn1cc(-c2cnc(N)c(C(=O)N[C@@H]3CCN(c4nc5ccccc5[nH]4)C3)c2)cn1` [Example 133, (R)—N-(1-(1H-benzo[d]imidazol-2-yl)pyrrolidin-3-yl)-2-amino-5-(1-methyl-1H-pyrazol-4-yl)nicotinamide] registered an IC50 of over 1000 nM. The value for `Cn1cc(-c2cnc(N)c(C(=O)N[C@@H]3CCN(c4ccccn4)C3)c2)cn1` [Example 135, (R)-2-amino-5-(1-methyl-1H-pyrazol-4-yl)-N-(1-(pyridin-2-yl)pyrrolidin-3-yl)nicotinamide] was over 1000 nM; that for `CCc1cnc(N2CC[C@@H](NC(=O)c3cc(-c4cnn(C)c4)cnc3N)C2)nc1` [Example 136, (R)-2-amino-N-(1-(5-ethylpyrimidin-2-yl)pyrrolidin-3-yl)-5-(1-methyl-1H-pyrazol-4-yl)nicotinamide] was over 1000 nM. The result for `Cn1cc(-c2cnc(N)c(C(=O)N[C@@H]3CCN(c4ncc5ccccc5n4)C3)c2)cn1` [Example 137, (R)-2-amino-5-(1-methyl-1H-pyrazol-4-yl)-N-(1-(quinazolin-2-yl)pyrrolidin-3-yl)nicotinamide] reads over 1000 nM; that for `CCOC(=O)c1csc(N2CC[C@@H](NC(=O)c3cc(-c4cnn(C)c4)cnc3N)C2)n1` [Example 139, ethyl (R)-2-(3-(2-amino-5-(1-methyl-1H-pyrazol-4-yl)nicotinamido)pyrrolidin-1-yl)thiazole-4-carboxylate], over 1000 nM. The result for `Nc1ncc(-c2cnn(C3CCNCC3)c2)cc1C(=O)N[C@@H]1CCN(C(=O)Nc2cc(Cl)cc(Cl)c2)C1` [Example 146, (R)-2-amino-N-(1-((3,5-dichlorophenyl)carbamoyl)pyrrolidin-3-yl)-5-(1-(piperidin-4-yl)-1H-pyrazol-4-yl)nicotinamide] reads 10 to 100 nM; that for `Nc1ncc(-c2cnn(C3CCNCC3)c2)cc1C(=O)N[C@@H]1CCN(C(=O)Oc2cccc(-c3ccccc3)c2)C1` [Example 147, [1,1′-biphenyl]-3-yl (R)-3-(2-amino-5-(1-(piperidin-4-yl)-1H-pyrazol-4-yl)nicotinamido)pyrrolidine-1-carboxylate], 10 to 100 nM. For the compound `CC(c1ccc(Cl)c(Cl)c1)N1CC[C@@H](NC(=O)c2cc(-c3cnn(C4CCNCC4)c3)cnc2N)C1` (stereo partly drawn) [Example 150, 2-amino-N-((3R)-1-(1-(3,4-dichlorophenyl)ethyl)pyrrolidin-3-yl)-5-(1-(piperidin-4-yl)-1H-pyrazol-4-yl)nicotinamide], the IC50 was over 1000 nM. The result for `Nc1ncc(-c2cnn(C3CCNCC3)c2)cc1C(=O)NC1CCN(Cc2ccccc2)C1` (stereo not shown) [Example 152, 2-amino-N-(1-benzylpyrrolidin-3-yl)-5-(1-(piperidin-4-yl)-1H-pyrazol-4-yl)nicotinamide] reads 100 to 1000 nM; that for `Nc1ncc(-c2cnn(C3CCNCC3)c2)cc1C(=O)N[C@@H]1CCN(Cc2ccc(F)cc2)C1` [Example 153, (R)-2-amino-N-(1-(4-fluorobenzyl)pyrrolidin-3-yl)-5-(1-(piperidin-4-yl)-1H-pyrazol-4-yl)nicotinamide], 100 to 1000 nM; that for `COc1cccc(CN2CC[C@@H](NC(=O)c3cc(-c4cnn(C5CCNCC5)c4)cnc3N)C2)c1` [Example 154, (R)-2-amino-N-(1-(3-methoxybenzyl)pyrrolidin-3-yl)-5-(1-(piperidin-4-yl)-1H-pyrazol-4-yl)nicotinamide], 100 to 1000 nM. In turn, `Nc1ncc(-c2cnn(C3CCNCC3)c2)cc1C(=O)N[C@@H]1CCN(Cc2ccc([N+](=O)[O-])cc2)C1` [Example 156, (R)-2-amino-N-(1-(4-nitrobenzyl)pyrrolidin-3-yl)-5-(1-(piperidin-4-yl)-1H-pyrazol-4-yl)nicotinamide] gave an IC50 of over 1000 nM. As to `Nc1ncc(-c2cnn(C3CCNCC3)c2)cc1C(=O)N[C@@H]1CCN(Cc2cc(F)c(F)cc2F)C1` [Example 157, (R)-2-amino-5-(1-(piperidin-4-yl)-1H-pyrazol-4-yl)-N-(1-(2,4,5-trifluorobenzyl)pyrrolidin-3-yl)nicotinamide], the IC50 was over 1000 nM. For `Nc1ncc(-c2cnn(C3CCNCC3)c2)cc1C(=O)N[C@@H]1CCN(Cc2ccc(F)c(Cl)c2)C1` [Example 158, (R)-2-amino-N-(1-(3-chloro-4-fluorobenzyl)pyrrolidin-3-yl)-5-(1-(piperidin-4-yl)-1H-pyrazol-4-yl)nicotinamide], the half-maximal inhibitory concentration (IC50) lay within 100 to 1000 nM.
